Reference: patent US9593305B2, “Differentiation of pluripotent stem cells” (Janssen Biotech, Inc., priority 2008, dated 2017)

Test system: H1 human embryonic stem cells
Test: Secondary assay: panel of compounds with growth factor combinations and muscimol, no activin A (Example 6, Table 5)
Type: cell-based
Conditions: for Cell Number, % of positive control / Cell Number, Average Total Cell Number / Sox17 Expression, % of positive control / Sox17 Expression, Average Total Intensity: no AA (with Wnt3a)
Description: Clusters of H1 human embryonic stem cells were grown on reduced growth factor […]™ (Invitrogen; Cat #356231)-coated tissue culture plastic. Cells were passaged using collagenase (Invitrogen; Cat #17104-019) treatment and gentle scraping, washed to remove residual enzyme, and plated with even dispersal at a ratio of 1:1 (surface area) on reduced growth factor […]™-coated 96-well black plates (Packard ViewPlates; PerkinElmer; Cat #6005182) using volumes of 100 μl/well. Cells were allowed to attach as clusters and then recover log phase growth over a 1 to 3 day period, feeding daily with MEF-conditioned medium supplemented with 8 ng/ml bFGF (R&D Systems; Cat #233-FB). Plates were maintained at 37° C., 5% CO2 in a humidified box throughout the duration of the assay. Stocks of growth factors purchased from R&D Systems were EGF (Cat #236-EG), FGF4 (Cat #235-F4), PDGF-A (Cat #221-AA), PDGF-D (Cat #1159-SB), PDGF-A/B (Cat #222-AB), and VEGF (Cat #293-VE). […] All growth factors were solubilized in PBS with 0.1% BSA (Sigma; Cat #A7888) and stored frozen at −80° C. […] Cat #D2650) and stored frozen at −80° C. Compounds were available as 5 mM stocks in 96-well plate format, solubilized in 100% DMSO and stored at −80° C. Compounds were further diluted to an intermediate concentration of 0.2 mM in 50 mM HEPES (Invitrogen; Cat #15630-080), 20% DMSO and stored at 4° C. All growth factors and inhibitors were prepared in a deep well, 96-well polypropylene plate, diluted to 5× intermediate stocks in DMEM:F12 base medium at the beginning of assay and stored at 4° C. A secondary screening assay was conducted, testing in triplicate and feeding on alternate days over the four-day assay timeframe. Assays were initiated by aspirating culture medium from each well followed by three washes in PBS to remove residual growth factors and serum. Test volumes of 80 μl per well were added back containing DMEM:F12 base medium (Invitrogen; Cat #11330-032) supplemented with 0.625% FCS (HyClone; […] All remaining growth factors were tested at a final assay concentration of 50 ng/ml (EGF, FGF4, PDGF-A, PDGF-A/B, VEGF). […] At the conclusion of four-days of culture, assay plates were washed twice with PBS, fixed with 4% paraformaldehyde (Alexis Biochemical; Cat #ALX-350-011) at room temperature for 20 minutes, then washed three times with PBS and permeabilized with 0.5% Triton X-100 (Sigma; Cat #T8760-2) for 20 minutes at room temperature. Cells were washed again three times with PBS and blocked with 4% chicken serum (Invitrogen; Cat #16110082) in PBS for 30 minutes at room temperature. Primary antibody (goat anti-human SOX17; R&D Systems; cat #AF1924) was diluted 1:100 in 4% chicken serum and added to each well for one hour at room temperature. Alexa Fluor 488 conjugated secondary antibody (chicken anti-goat IgG; Molecular Probes; Cat #AZ1467) was diluted 1:200 in PBS and added to each sample well after washing three times with PBS. To counterstain nuclei, 4 μg/ml Hoechst 33342 (Invitrogen; Cat #H3570) was added for ten minutes at room temperature. Plates were washed once with PBS and left in 100 μl/well PBS for imaging. Imaging was performed using an IN Cell Analyzer 1000 (GE Healthcare) utilizing the 51008bs dichroic for cells stained with Hoechst 33342 and Alexa Fluor 488. Exposure times were optimized from positive control wells and from untreated negative control wells stained with secondary antibody alone. Images from 15 fields per well were acquired to compensate for any cell loss during the bioassay and subsequent staining procedures. […] Segmentation for the nuclei was determined based on grayscale levels (baseline range 100-300) and nuclear size. Averages and standard deviations were calculated for each replicate data set. Total SOX17 protein expression was reported as total intensity or integrated intensity, defined as total fluorescence of the cell multiplied by the area of the cell. […]

[1] = EGF + FGF4 + PDGF-AB + Muscimol

SMILES | Cell Number, % of positive control (EGF) [%] | Cell Number, Average Total Cell Number (EGF) | Sox17 Expression, % of positive control (EGF) [%] | Sox17 Expression, Average Total Intensity (EGF) | Cell Number, % of positive control (EGF + FGF4) [%] | Cell Number, Average Total Cell Number (EGF + FGF4) | Sox17 Expression, % of positive control (EGF + FGF4) [%] | Sox17 Expression, Average Total Intensity (EGF + FGF4) | Cell Number, % of positive control (EGF + FGF4 + PDGF-A + Muscimol) [%] | Cell Number, Average Total Cell Number (EGF + FGF4 + PDGF-A + Muscimol) | Sox17 Expression, % of positive control (EGF + FGF4 + PDGF-A + Muscimol) [%] | Sox17 Expression, Average Total Intensity (EGF + FGF4 + PDGF-A + Muscimol) | Cell Number, % of positive control (EGF + FGF4 + PDGF-A + VEGF) [%] | Cell Number, Average Total Cell Number (EGF + FGF4 + PDGF-A + VEGF) | Sox17 Expression, % of positive control (EGF + FGF4 + PDGF-A + VEGF) [%] | Sox17 Expression, Average Total Intensity (EGF + FGF4 + PDGF-A + VEGF) | Cell Number, % of positive control (EGF + FGF4 + PDGF-AB) [%] | Cell Number, Average Total Cell Number (EGF + FGF4 + PDGF-AB) | Sox17 Expression, % of positive control (EGF + FGF4 + PDGF-AB) [%] | Sox17 Expression, Average Total Intensity (EGF + FGF4 + PDGF-AB) | further results
O=C1NCCCc2cncc(c2)-c2ncnc(n2)Nc2cccc(c2)CN2CCC1CC2 [Compound 22, 1,8,10,12,16,22,30-Heptaazapentacyclo[22.2.2.1-3,7˜0.1˜9,13˜1-14,18˜]hentriaconta-3(31), 4,6,9(30), 10,12,14(29), 15,17-nonaen-23-one] | 149.19 | 14105 | 1.02 | 1.75E+06 | 137.19 | 12971 | 6.05 | 1.04E+07 | 122.80 | 11610 | 7.77 | 1.33E+07 | 132.44 | 12522 | 4.59 | 7.88E+06 | 175.36 | 16580 | 5.01 | 8.60E+06 | Cell Number, % of positive control [1]: 155.23%; Cell Number, Average Total Cell Number [1]: 14676; Sox17 Expression, % of positive control [1]: 3.27%; Sox17 Expression, Average Total Intensity [1]: 5.61E+06; Cell Number, % of positive control (EGF + PDGF-A + VEGF): 215.48%; Cell Number, Average Total Cell Number (EGF + PDGF-A + VEGF): 20372; Sox17 Expression, % of positive control (EGF + PDGF-A + VEGF): 2.91%; Sox17 Expression, Average Total Intensity (EGF + PDGF-A + VEGF): 4.99E+06; Cell Number, % of positive control (FGF4 + PDGF-A + VEGF): 129.85%; Cell Number, Average Total Cell Number (FGF4 + PDGF-A + VEGF): 12277; Sox17 Expression, % of positive control (FGF4 + PDGF-A + VEGF): 2.86%; Sox17 Expression, Average Total Intensity (FGF4 + PDGF-A + VEGF): 4.90E+06
CCN1CC(=O)NCCCc2cncc(c2)-c2ncnc(n2)Nc2cc(Cl)cc(c2)C1 [Compound 35, 10-Chloro-14-ethyl-3,5,7,14,17,23,27-heptaazatetracyclo[19.3.1.1˜2,6˜0.1˜8,12]Theptacosa-1(25), 2(27), 3,5,8(26), 9,11,21,23-nonaen-16-one] | 228.40 | 23887 | −6.32 | −1.01E+07 | 203.36 | 21268 | 0.85 | 1.36E+06 | 147.80 | 15457 | 43.15 | 6.89E+07 | 154.25 | 16132 | 57.04 | 9.11E+07 | 168.39 | 17611 | 8.03 | 1.28E+07 | Cell Number, % of positive control [1]: 171.62%; Cell Number, Average Total Cell Number [1]: 17949; Sox17 Expression, % of positive control [1]: 0.96%; Sox17 Expression, Average Total Intensity [1]: 1.54E+06; Cell Number, % of positive control (EGF + PDGF-A + VEGF): 222.23%; Cell Number, Average Total Cell Number (EGF + PDGF-A + VEGF): 23242; Sox17 Expression, % of positive control (EGF + PDGF-A + VEGF): 7.72%; Sox17 Expression, Average Total Intensity (EGF + PDGF-A + VEGF): 1.23E+07; Cell Number, % of positive control (FGF4 + PDGF-A + VEGF): 153.63%; Cell Number, Average Total Cell Number (FGF4 + PDGF-A + VEGF): 16068; Sox17 Expression, % of positive control (FGF4 + PDGF-A + VEGF): 24.57%; Sox17 Expression, Average Total Intensity (FGF4 + PDGF-A + VEGF): 3.92E+07
O=C1CCN2CCN(CC2)Cc2cc(Cl)cc(c2)Nc2ncnc(n2)-c2cncc(c2)CCCN1 [Compound 34, 5-Chloro-1,8,10,12,16,22,26,32-octaazapentacyclo[24.2.2.1˜3.7˜0.1˜9,13˜0.1˜14.18˜]tritriaconta-3(33), 4,6,9(32), 10,12,14(31), 15,17-nonaen-23-one] | 124.89 | 13062 | 17.39 | 2.78E+07 | 125.58 | 13133 | 76.85 | 1.23E+08 | 116.72 | 12208 | 34.83 | 5.56E+07 | 123.36 | 12901 | 31.35 | 5.01E+07 | 119.83 | 12532 | 68.41 | 1.09E+08 | response with growth factors (cell numbers and SOX17 expression) (2.5 μM, all growth factor combinations tested, no activin A): significant synergistic responses with all growth factors tested; Cell Number, % of positive control [1]: 151.18%; Cell Number, Average Total Cell Number [1]: 15811; Sox17 Expression, % of positive control [1]: 4.32%; Sox17 Expression, Average Total Intensity [1]: 6.90E+06; Cell Number, % of positive control (EGF + PDGF-A + VEGF): 112.84%; Cell Number, Average Total Cell Number (EGF + PDGF-A + VEGF): 11801; Sox17 Expression, % of positive control (EGF + PDGF-A + VEGF): 2.53%; Sox17 Expression, Average Total Intensity (EGF + PDGF-A + VEGF): 4.04E+06; Cell Number, % of positive control (FGF4 + PDGF-A + VEGF): 145.93%; Cell Number, Average Total Cell Number (FGF4 + PDGF-A + VEGF): 15262; Sox17 Expression, % of positive control (FGF4 + PDGF-A + VEGF): 7.18%; Sox17 Expression, Average Total Intensity (FGF4 + PDGF-A + VEGF): 1.15E+07
CN1CCC(=O)NCCCNc2ncccc2-c2ncnc(n2)Nc2cccc(c2)C1 [Compound 39, 9-Methyl-2,3,4,5,7,8,9,10-octahydro-16H-17,21-(azeno)-11,15-(metheno)pyrido[3,2-g][1,3,5,9,13,17]hexaazacyclotricosin-6(1H)-one] | 122.85 | 11615 | 0.09 | 1.49E+05 | 110.59 | 10456 | 2.98 | 5.11E+06 | 96.28 | 9103 | 0.43 | 7.32E+05 | 84.33 | 7973 | 3.09 | 5.30E+06 | 105.47 | 9972 | 0.94 | 1.62E+06 | Cell Number, % of positive control [1]: 111.48%; Cell Number, Average Total Cell Number [1]: 10540; Sox17 Expression, % of positive control [1]: 1.29%; Sox17 Expression, Average Total Intensity [1]: 2.22E+06; Cell Number, % of positive control (EGF + PDGF-A + VEGF): 180.34%; Cell Number, Average Total Cell Number (EGF + PDGF-A + VEGF): 17050; Sox17 Expression, % of positive control (EGF + PDGF-A + VEGF): 2.82%; Sox17 Expression, Average Total Intensity (EGF + PDGF-A + VEGF): 4.84E+06; Cell Number, % of positive control (FGF4 + PDGF-A + VEGF): 93.67%; Cell Number, Average Total Cell Number (FGF4 + PDGF-A + VEGF): 8856; Sox17 Expression, % of positive control (FGF4 + PDGF-A + VEGF): 0.41%; Sox17 Expression, Average Total Intensity (FGF4 + PDGF-A + VEGF): 7.01E+05
